Experimental data published in ChEMBL document CHEMBL1125940 (Bioorg Med Chem Lett, 1991).
Positions of bridges follow the written chain, without caps; N, C: chain ends. Non-standard residues stand in square brackets, D forms with d. Residues, ends and D or L forms follow the SMILES beside them. Nle = CCCC[C@H](N)C(=O)O

Columns and labels:
[1] = molecular target: T1, Endothelin-1 receptor (Rattus norvegicus, UniProt P26684); assay: Binding affinity towards Endothelin A receptor in A10 rat thoracic aorta smooth muscle cells using [125I]ET1 as radioligand (Exp 1)
T1 sequence (P26684 whole entry): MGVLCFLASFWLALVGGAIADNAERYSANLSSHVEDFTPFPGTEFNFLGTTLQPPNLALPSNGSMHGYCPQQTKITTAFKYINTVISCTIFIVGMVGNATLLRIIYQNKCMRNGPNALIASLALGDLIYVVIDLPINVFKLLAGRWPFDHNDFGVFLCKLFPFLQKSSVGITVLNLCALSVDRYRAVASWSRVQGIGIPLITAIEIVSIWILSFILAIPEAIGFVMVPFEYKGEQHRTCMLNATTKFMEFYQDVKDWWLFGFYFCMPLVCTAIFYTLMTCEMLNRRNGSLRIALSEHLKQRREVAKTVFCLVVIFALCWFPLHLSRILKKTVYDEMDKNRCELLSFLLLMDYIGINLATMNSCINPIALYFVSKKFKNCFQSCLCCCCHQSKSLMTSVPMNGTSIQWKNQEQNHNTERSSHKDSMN

[2] = molecular target: T1, Endothelin-1 receptor; assay: Binding affinity towards Endothelin A receptor in A10 rat thoracic aorta smooth muscle cells using [125I]ET1 as radioligand (Exp 2)

Kd [1] [nM]	Kd [2] [nM]	SMILES
96	3120	CC[C@H](C)[C@H](NC(=O)[C@H](C)NC(=O)[C@H](CC(=O)O)NC(=O)[C@H](CC(C)C)NC(=O)[C@H](Cc1cnc[nH]1)NC(=O)[C@@H]1CSSC[C@H](N)C(=O)N[C@@H](CO)C(=O)N[C@H]2CSSC[C@H](NC(=O)[C@H](CCC(=O)O)NC(=O)[C@H](CCCCN)NC(=O)[C@H](CC(=O)O)NC(=O)[C@H](CCSC)NC(=O)[C@H](CC(C)C)NC(=O)[C@H](CO)NC(=O)[C@H](CO)NC2=O)C(=O)N[C@@H](C(C)C)C(=O)N[C@@H](Cc2ccc(O)cc2)C(=O)N[C@@H](Cc2ccccc2)C(=O)N1)C(=O)N[C@@H](Cc1c[nH]c2ccccc12)C(=O)O (H-CSCSSLMDKECVYFCHLDAIW-OH; disulfide 1-15, 3-11)
6.6	1910	CC[C@H](C)[C@H](NC(=O)[C@H](CC(=O)O)NC(=O)[C@H](C)NC(=O)[C@H](Cc1c[nH]cn1)NC(=O)[C@@H]1CSSC[C@H](N)C(=O)N[C@@H](CO)C(=O)N[C@H]2CSSC[C@H](NC(=O)[C@H](CCC(=O)O)NC(=O)[C@H](CCCCN)NC(=O)[C@H](CC(=O)O)NC(=O)[C@H](CCSC)NC(=O)[C@H](CC(C)C)NC(=O)[C@H](CO)NC(=O)[C@H](CO)NC2=O)C(=O)N[C@@H](C(C)C)C(=O)N[C@@H](Cc2ccc(O)cc2)C(=O)N[C@@H](Cc2ccccc2)C(=O)N1)C(=O)N[C@H](C(=O)N[C@@H](Cc1c[nH]c2ccccc12)C(=O)O)[C@@H](C)CC (H-CSCSSLMDKECVYFCHADIIW-OH; disulfide 1-15, 3-11)

Second part, the compound before the results:

SMILES	Kd [1] [nM]	Kd [2] [nM]
CCCC[C@@H]1NC(=O)[C@H](CC(C)C)NC(=O)[C@H](CO)NC(=O)[C@H](CO)NC(=O)[C@H](C)NC(=O)[C@H](CO)NC(=O)[C@@H](N)CSSC[C@@H](C(=O)N[C@@H](Cc2cnc[nH]2)C(=O)N[C@@H](CC(C)C)C(=O)N[C@@H](CC(=O)O)C(=O)N[C@H](C(=O)N[C@H](C(=O)N[C@@H](Cc2c[nH]c3ccccc23)C(=O)O)[C@@H](C)CC)[C@@H](C)CC)NC(=O)[C@H](Cc2ccccc2)NC(=O)[C@H](Cc2ccc(O)cc2)NC(=O)[C@H](C(C)C)NC(=O)[C@H](C)NC(=O)[C@H](CCC(=O)O)NC(=O)[C@H](CCCCN)NC(=O)[C@H](CC(=O)O)NC1=O (H-CSASSL[Nle]DKEAVYFCHLDIIW-OH; disulfide 1-15)	0.35	16.6
CC[C@H](C)[C@H](NC(=O)[C@H](CC(=O)O)NC(=O)[C@H](CC(C)C)NC(=O)[C@H](Cc1cnc[nH]1)NC(=O)[C@@H]1CSSC[C@H](N)C(=O)N[C@@H](C)C(=O)N[C@H]2CSSC[C@H](NC(=O)[C@H](CCC(=O)O)NC(=O)[C@H](CCCCN)NC(=O)[C@H](CC(=O)O)NC(=O)[C@H](CCSC)NC(=O)[C@H](CC(C)C)NC(=O)[C@H](CO)NC(=O)[C@H](CO)NC2=O)C(=O)N[C@@H](C(C)C)C(=O)N[C@@H](Cc2ccc(O)cc2)C(=O)N[C@@H](Cc2ccccc2)C(=O)N1)C(=O)N[C@H](C(=O)N[C@@H](Cc1c[nH]c2ccccc12)C(=O)O)[C@@H](C)CC (H-CACSSLMDKECVYFCHLDIIW-OH; disulfide 1-15, 3-11)	9.6	409
CC[C@H](C)[C@H](NC(=O)[C@H](C)NC(=O)[C@H](CC(C)C)NC(=O)[C@H](Cc1cnc[nH]1)NC(=O)[C@@H]1CSSC[C@H](N)C(=O)N[C@@H](CO)C(=O)N[C@H]2CSSC[C@H](NC(=O)[C@H](CCC(=O)O)NC(=O)[C@H](CCCCN)NC(=O)[C@H](CC(=O)O)NC(=O)[C@H](CCSC)NC(=O)[C@H](CC(C)C)NC(=O)[C@H](CO)NC(=O)[C@H](CO)NC2=O)C(=O)N[C@@H](C(C)C)C(=O)N[C@@H](Cc2ccc(O)cc2)C(=O)N[C@@H](Cc2ccccc2)C(=O)N1)C(=O)N[C@H](C(=O)N[C@@H](Cc1c[nH]c2ccccc12)C(=O)O)[C@@H](C)CC (H-CSCSSLMDKECVYFCHLAIIW-OH; disulfide 1-15, 3-11)	0.7	80
CC[C@H](C)[C@H](NC(=O)[C@H](CC(=O)O)NC(=O)[C@H](CC(C)C)NC(=O)[C@H](Cc1cnc[nH]1)NC(=O)[C@@H]1CSSC[C@H](N)C(=O)N[C@@H](CO)C(=O)N[C@H]2CSSC[C@H](NC(=O)[C@H](CCC(=O)O)NC(=O)[C@H](CCCCN)NC(=O)[C@H](CC(=O)O)NC(=O)[C@H](CCSC)NC(=O)[C@H](CC(C)C)NC(=O)[C@H](CO)NC(=O)[C@H](CO)NC2=O)C(=O)N[C@@H](C)C(=O)N[C@@H](Cc2ccc(O)cc2)C(=O)N[C@@H](Cc2ccccc2)C(=O)N1)C(=O)N[C@H](C(=O)N[C@@H](Cc1c[nH]c2ccccc12)C(=O)O)[C@@H](C)CC (H-CSCSSLMDKECAYFCHLDIIW-OH; disulfide 1-15, 3-11)	31	1390
